Measured values taken from PubChem BioAssay AID2060487 (Molecular Pharmacology Branch, DTP, NCI, 2025).
pIC50: −log10 of the molar value.

Tested on: 997537-175-T-J1-PDC complex spheroid viability
Assay: Anticancer human tumor 997537-175-T-J1-PDC patient-derived colon adenocarcinoma cell line growth inhibition [GQUAD]
Details: for pIC50: curve of first compound; for viability, T/C: stronger effect = lower value
In short: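 Tumor cells were grown as complex spheroids with HUVEC endothelial cells and mesenchymal stem cells as stroma. G-quadruplex stabilizers were combined with targeted agents over half-log dilutions from near the clinical Cmax, or from 10 microM.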

[1] = second compound 0.0316 µM, first compound 0.0316 µM
[2] = second compound 0.0316 µM, first compound 0.1 µM
[3] = second compound 0.0316 µM, first compound 0.316 µM
[4] = second compound 0.0316 µM, first compound 1 µM
[5] = second compound 0.0316 µM, first compound 3.16 µM
[6] = second compound 0.0316 µM, first compound 10 µM
[7] = second compound 0.1 µM, first compound 0.0316 µM
[8] = second compound 0.1 µM, first compound 0.1 µM
[9] = second compound 0.1 µM, first compound 0.316 µM
[10] = second compound 0.1 µM, first compound 1 µM
[11] = second compound 0.1 µM, first compound 3.16 µM
[12] = second compound 0.1 µM, first compound 10 µM
[13] = second compound 0.316 µM, first compound 0.0316 µM
[14] = second compound 0.316 µM, first compound 0.1 µM
[15] = second compound 0.316 µM, first compound 0.316 µM
[16] = second compound 0.316 µM, first compound 1 µM
[17] = second compound 0.316 µM, first compound 3.16 µM
[18] = second compound 0.316 µM, first compound 10 µM
[19] = second compound 1 µM, first compound 0.0316 µM
[20] = second compound 1 µM, first compound 0.1 µM
[21] = second compound 1 µM, first compound 0.316 µM
[22] = second compound 1 µM, first compound 1 µM
[23] = second compound 1 µM, first compound 3.16 µM
[24] = second compound 1 µM, first compound 10 µM
[25] = second compound 3.16 µM, first compound 0.0316 µM
[26] = second compound 3.16 µM, first compound 0.1 µM
[27] = second compound 3.16 µM, first compound 0.316 µM
[28] = second compound 3.16 µM, first compound 1 µM
[29] = second compound 3.16 µM, first compound 3.16 µM
[30] = second compound 3.16 µM, first compound 10 µM
[31] = second compound 10 µM, first compound 0.0316 µM
[32] = second compound 10 µM, first compound 0.1 µM
[33] = second compound 10 µM, first compound 0.316 µM
[34] = second compound 10 µM, first compound 1 µM
[35] = second compound 10 µM, first compound 3.16 µM
[36] = second compound 10 µM, first compound 10 µM
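Also: spheroids exposed to the agents for 7 days.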
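For viability, T/C in this document: 100% = DMSO vehicle control viability.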

Work on `Nc1ccn(C2OC(CO)C(O)C2(F)F)c(=O)n1` (stereo not drawn) + CN(C)c1ccc(Nc2c3ccc(NC(=O)CCN4CCCC4)cc3nc3cc(NC(=O)CCN4CCCC4)ccc23)cc1 yielded a pIC50 (second compound 0.0316 µM) of under 5.00, a pIC50 (second compound 0.1 µM) of under 5.00 and a pIC50 (second compound 0.316 µM) of under 5.00. The pIC50 (second compound 1 µM) was 5.03, the pIC50 (second compound 3.16 µM) was under 5.00 and the pIC50 (second compound 10 µM) was under 5.00. The viability, T/C [1] was 99.1%, the viability, T/C [2] was 104% and the viability, T/C [3] was 110%. It also gave a viability, T/C [4] of 64.1%, a viability, T/C [5] of 70.2% and a viability, T/C [6] of 69.5%. It also gave a viability, T/C [7] of 96.3%, a viability, T/C [8] of 98.5% and a viability, T/C [9] of 97.1%. The viability, T/C [10] was 72.3%, the viability, T/C [11] was 88.3% and the viability, T/C [12] was 68.8%. The viability, T/C [13] was 81.7%, the viability, T/C [14] was 97.8% and the viability, T/C [15] was 74.5%. The viability, T/C [16] was 74%, the viability, T/C [17] was 96.8% and the viability, T/C [18] was 77.6%. For the same molecule, the viability, T/C [19] was 66.7%, the viability, T/C [20] was 86.9% and the viability, T/C [21] was 79.9%. For the same molecule, the viability, T/C [22] was 87.5%, the viability, T/C [23] was 110% and the viability, T/C [24] was 47.5%. The viability, T/C [25] was 55.6%, the viability, T/C [26] was 80.3% and the viability, T/C [27] was 79.7%. For the same molecule, the viability, T/C [28] was 81%, the viability, T/C [29] was 84.5% and the viability, T/C [30] was 66.2%. For the same molecule, the viability, T/C [31] was 84%, the viability, T/C [32] was 85.1% and the viability, T/C [33] was 84.7%. For the same molecule, the viability, T/C [34] was 89.5%, the viability, T/C [35] was 80.8% and the viability, T/C [36] was 63.5%.
For `O=C(NO)c1cnc(N2CCN(S(=O)(=O)c3ccc4ccccc4c3)CC2)nc1` + Cc1cnc(CNC(=O)c2c(=O)c3ccc(N4CCCN(C)CC4)nc3n3c2sc2ccccc23)cn1, the pIC50 (second compound 0.0316 µM) was 5.71, the pIC50 (second compound 0.1 µM) was 5.68 and the pIC50 (second compound 0.316 µM) was 5.40. The pIC50 (second compound 1 µM) was 5.71, the pIC50 (second compound 3.16 µM) was 5.74 and the pIC50 (second compound 10 µM) was 5.79. The viability, T/C [1] was 107%, the viability, T/C [2] was 92.3% and the viability, T/C [3] was 96.3%. For the same molecule, the viability, T/C [4] was 81.2%, the viability, T/C [5] was 26.8% and the viability, T/C [6] was 0.4%. For the same molecule, the viability, T/C [7] was 105%, the viability, T/C [8] was 97% and the viability, T/C [9] was 80.7%. It also gave a viability, T/C [10] of 69%, a viability, T/C [11] of 41.7% and a viability, T/C [12] of 0.47%. The viability, T/C [13] was 94.7%, the viability, T/C [14] was 100% and the viability, T/C [15] was 85.6%. The viability, T/C [16] was 73.2%, the viability, T/C [17] was 69.8% and the viability, T/C [18] was 0.31%. The viability, T/C [19] was 83.9%, the viability, T/C [20] was 90% and the viability, T/C [21] was 104%. It also gave a viability, T/C [22] of 93%, a viability, T/C [23] of 19.4% and a viability, T/C [24] of 0.31%. It also gave a viability, T/C [25] of 104%, a viability, T/C [26] of 116% and a viability, T/C [27] of 93.5%. For the same molecule, the viability, T/C [28] was 83.2%, the viability, T/C [29] was 21.4% and the viability, T/C [30] was 1.15%. For the same molecule, the viability, T/C [31] was 108%, the viability, T/C [32] was 88.7% and the viability, T/C [33] was 103%. It also gave a viability, T/C [34] of 77.5%, a viability, T/C [35] of 11.4% and a viability, T/C [36] of 0.29%.
`COc1cccc2c1C(=O)c1c(O)c3c(c(O)c1C2=O)CC(O)(C(=O)CO)CC3OC1CC(N)C(O)C(C)O1` (stereo not drawn) + Cc1[nH]c2ccc(F)cc2c1-c1nc2c3cccnc3c3ncccc3c2[nH]1 was tested, and the pIC50 (second compound 0.0316 µM) was under 5.00, the pIC50 (second compound 0.1 µM) was 5.01 and the pIC50 (second compound 0.316 µM) was 5.09. For the same molecule, the pIC50 (second compound 1 µM) was 5.07, the pIC50 (second compound 3.16 µM) was 5.19 and the pIC50 (second compound 10 µM) was 5.25. The viability, T/C [1] was 97.6%, the viability, T/C [2] was 82.8% and the viability, T/C [3] was 101%. For the same molecule, the viability, T/C [4] was 97.7%, the viability, T/C [5] was 95.5% and the viability, T/C [6] was 51.1%. The viability, T/C [7] was 80.7%, the viability, T/C [8] was 78% and the viability, T/C [9] was 95.4%. The viability, T/C [10] was 91.7%, the viability, T/C [11] was 96.9% and the viability, T/C [12] was 49.2%. It also gave a viability, T/C [13] of 101%, a viability, T/C [14] of 83.3% and a viability, T/C [15] of 80.7%. The viability, T/C [16] was 96.9%, the viability, T/C [17] was 79.8% and the viability, T/C [18] was 43.1%. The viability, T/C [19] was 76.2%, the viability, T/C [20] was 91.3% and the viability, T/C [21] was 92.7%. For the same molecule, the viability, T/C [22] was 85.4%, the viability, T/C [23] was 80.3% and the viability, T/C [24] was 44.9%. For the same molecule, the viability, T/C [25] was 74%, the viability, T/C [26] was 64.4% and the viability, T/C [27] was 84.1%. The viability, T/C [28] was 83.6%, the viability, T/C [29] was 95.1% and the viability, T/C [30] was 31.4%. For the same molecule, the viability, T/C [31] was 67.6%, the viability, T/C [32] was 86.5% and the viability, T/C [33] was 94.1%. The viability, T/C [34] was 88.7%, the viability, T/C [35] was 66.7% and the viability, T/C [36] was 33.2%.
Work on `O=c1[nH]cc(F)c(=O)[nH]1` + Cc1[nH]c2ccc(F)cc2c1-c1nc2c3cccnc3c3ncccc3c2[nH]1 yielded a pIC50 (second compound 0.0316 µM) of under 5.00, a pIC50 (second compound 0.1 µM) of under 5.00 and a pIC50 (second compound 0.316 µM) of under 5.00. It also gave a pIC50 (second compound 1 µM) of under 5.00, a pIC50 (second compound 3.16 µM) of under 5.00 and a pIC50 (second compound 10 µM) of under 5.00. The viability, T/C [1] was 95.6%, the viability, T/C [2] was 88.1% and the viability, T/C [3] was 109%. For the same molecule, the viability, T/C [4] was 91.7%, the viability, T/C [5] was 80.3% and the viability, T/C [6] was 89.5%. It also gave a viability, T/C [7] of 87.4%, a viability, T/C [8] of 87.7% and a viability, T/C [9] of 84.6%. It also gave a viability, T/C [10] of 83.5%, a viability, T/C [11] of 98.3% and a viability, T/C [12] of 101%. The viability, T/C [13] was 94.2%, the viability, T/C [14] was 76.8% and the viability, T/C [15] was 78.5%. It also gave a viability, T/C [16] of 107%, a viability, T/C [17] of 114% and a viability, T/C [18] of 109%. For the same molecule, the viability, T/C [19] was 79.2%, the viability, T/C [20] was 94% and the viability, T/C [21] was 85.4%. It also gave a viability, T/C [22] of 87.2%, a viability, T/C [23] of 108% and a viability, T/C [24] of 86.7%. The viability, T/C [25] was 87.2%, the viability, T/C [26] was 83% and the viability, T/C [27] was 94.1%. It also gave a viability, T/C [28] of 95.8%, a viability, T/C [29] of 94% and a viability, T/C [30] of 76.1%. For the same molecule, the viability, T/C [31] was 70.2%, the viability, T/C [32] was 76.2% and the viability, T/C [33] was 88.6%. For the same molecule, the viability, T/C [34] was 57%, the viability, T/C [35] was 61.4% and the viability, T/C [36] was 61.4%.
